Legend:
[1] = test system: 175 kdyn contusive spinal cord injury; assay: Contusive spinal cord injury; format: in vivo, Sprague-Dawley rats; settings: 1 mg/kg
Procedure: FIG. 12. COG 112 reduces the size of the lesion in white matter after spinal cord injury by inhibition of microglia activation. Rats received 175 kdyn contusive spinal cord injury and subsequent treatment with saline or COG 112 starting immediately after injury for 1 week. The injured area and spared white matter from the injured spinal cord were evaluated and quantified by luxol fast blue (LFB) staining area (top left panel). Activation of microglia was examined by staining adjacent sections with an ED1 antibody (bottom left panel). […] Scale bar=1000 μm. Similar to MS, spinal cord injury (SCI) is another devastating neurological disorder manifested as massive demyelination in the white matter of the spinal cord and extensive microglial activation surrounding the injured site. To examine the therapeutic effect of ApoE analogs on spinal cord injury, COG 112 (SEQ ID NO: 5) was administered to rats immediately after a contusive spinal cord injury. […] The second dose of COG 112 or vehicle was given i.v. 5 hours later followed by daily i.p. doses for 7 days. The animals were sacrificed on day 7 and the spinal cord spanning the injured site was subjected to histological examination. The injured area and spared white matter of the spinal cord were evaluated by Luxol Fast blue (LFB) staining. Activation of microglia was examined by staining adjacent sections with an antibody to ED1. […] Most impressively, about 50% of spared tissue remained at the epicenter of COG 112-treated animals, while only 15% remained in control animals. […] The microglia surrounding the injured spinal cord were robustly activated as shown by ED1-immunoreactivity 7 days after contusion (FIG. 12, bottom panels).

[2] = test system: sciatic nerve crush; assay: Sciatic nerve crush model; format: in vivo, C57BL/6J male mice; settings: 1 mg/kg i.p. daily
Procedure: FIG. 13. COG 112 attenuates axonal neurodegeneration and promotes functional recovery after sciatic nerve crush. C57BL mice were subjected to sciatic nerve crush on left hindlimb using a number 5 jeweler's forceps. The animals received lactated Ringer's buffer or COG 112 (1 mg/kg) by i.p. 2 hr after crush followed by daily dose for 14 days. (A) To assess functional deficits after nerve crush, footprints were recorded and the Sciatic Functional Index (SFI) was calculated. […] Treatment with COG 112 also robustly augmented the mRNA expression of peripheral myelin marker P0 (B) and axonal regeneration marker GAP43 (C) quantified by real-time PCR. **P<0.01; P<0.001. (D) On day 4 after injury, the sciatic nerves were dissected and stained with FD NeuroSilver kit to reveal degenerating axons manifested as dotted lines as depicted in the schematic above the micrographs.
We used a sciatic nerve crush model to investigate whether ApoE analogs can prevent functional loss and/or promote functional recovery after nerve injury. C57BL/6J male mice were anesthetized and the sciatic nerve on left hindlimb was crushed with Number 5 Jeweler's forceps at mid-thigh level for 30 seconds. The animals were then randomly assigned to receive either COG 112 (1 mg/kg, i.p.) or lactated Ringer's buffer two hours after crush followed by daily dose for 14 days. On day 4, two animals from each group were sacrificed and crushed sciatic nerves were dissected and silver stained using a FD NeuroSilver® staining kit to reveal degenerating axons.
On day 7 and 14, footprints for each animal were taken for quantitative assessment of hindlimb motor function. A Sciatic Functional Index (SFI), which takes into account the relationship between toes and feet of an animal's hindlimb, was calculated for each animal as previously described (Bain et al. (1989) Plast. Reconstr. Surg., Vol. 83(1):129-38). SFI values of zero and […] indicate normal and complete dysfunction, respectively.
In order to examine the effect of COG 112 on remyelination and regeneration of axons, segments of sciatic nerves spanning the crushed sites were dissected and collected on day 3, 7 and 14 for examination of P0, a marker of peripheral myelination, and growth associated protein 43 (GAP43), a marker of axonal regeneration, mRNA by real time PCR.

Substance: Ac-RQIKIWFQNRRMKWKKCLRVRLASHLRKLRKRLL-NH2 [COG 112]
- ED1 immunoreactive area in the injured spinal cord (microglia activation) ([1]; 7 days after contusion): dramatically decreased
- spared tissue remaining at the epicenter ([1]; day 7, control animals 15%): about 50%
- percentage of spared white matter to total spinal cord area ([1]; day 7, epicenter to 2.4 mm rostral or caudal, vs saline): significantly higher
- expression of GAP43 mRNA (real time PCR) ([2]; 2 weeks): robustly increased
- expression of P0 mRNA (real time PCR) ([2]; 2 weeks): robustly increased
- functional recovery (Sciatic Functional Index) ([2]; 2 weeks, vs vehicle, P<0.001): significantly improved functional recovery
- axonal degeneration (silver staining) ([2]; day 4): significantly reduced axonal degeneration
